For test [1], the system named is pig-baboon chimeric uricase (amino acids 1-225 of SEQ ID NO:10 and amino acids 226-304 of SEQ ID NO:11). As to the kind of experiment: Uricolytic activity, A293 decrease, steady-state kinetics. Format: biochemical. The note with it: 0.1M Na2HPO4/Na2H2PO4, pH 7.4; 24° C.
For test [2], the system named is ancestral mammalian uricase Node 19 (four identical subunits), SEQ ID NO:2. Described as above. Format: biochemical. Conditions: 0.1M Na2HPO4/Na2H2PO4, pH 7.4; 24° C. The text has this: (§1) Uricases were designed using Ancestral Sequence Reconstruction (ASR) to reconstruct and resurrect ancestral forms of human uricase based upon an analysis of modern mammalian uricases. See generally Gaucher, “Ancestral sequence reconstruction as a tool to understand natural history and guide synthetic biology: Realizing (and extending) the vision of Zukerkandl and Pauling” in ANCESTRAL SEQUENCE RECONSTRUCTION, ed. David A. Liberles, pp. 20-33 (Oxford University Press, 2007). Ancestral uricase sequences corresponding to various nodes of the phylogenetic tree were inferred by analyzing modern mammalian uricase sequences (FIG. 1), and uricases were designed based upon those inferred sequences. Uricase subunits of the present invention may therefore comprise an amino acid sequence corresponding to the inferred amino acid sequence at one of the nodes highlighted in FIG. 1 (e.g., Node 18, Node 19, Node 26, Node 27, Node 30, Node 31 or Node 32) or to a variant of the inferred amino acid sequence at one of the nodes highlighted in FIG. 1.

Test [3] has as its system ancestral mammalian uricase Node 26 (four identical subunits), SEQ ID NO:3. The description is as above. In kind it is biochemical. Conditions: phosphate buffered saline, pH 7.4.
Source text: as §1

Test [4] deals with ancestral mammalian uricase Node 27 (four identical subunits), SEQ ID NO:4. Described as above. In kind it is biochemical. The note with it: phosphate buffered saline, pH 7.4; 24° C.
Source text: as §1

The target of test [5] is T1, pig uricase, SEQ ID NO:10 (Sus scrofa, UniProt P16164).
T1 sequence (P16164 1-304): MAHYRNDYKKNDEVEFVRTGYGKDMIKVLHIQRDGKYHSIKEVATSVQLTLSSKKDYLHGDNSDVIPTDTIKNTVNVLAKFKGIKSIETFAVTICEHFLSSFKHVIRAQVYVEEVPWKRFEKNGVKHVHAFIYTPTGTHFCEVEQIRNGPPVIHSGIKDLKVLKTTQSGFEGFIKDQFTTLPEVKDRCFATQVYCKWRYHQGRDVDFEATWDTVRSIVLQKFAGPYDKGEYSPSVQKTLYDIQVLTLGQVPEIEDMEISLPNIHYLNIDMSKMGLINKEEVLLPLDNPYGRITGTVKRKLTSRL
The note with it: 0.1M Na2HPO4/Na2H2PO4, pH 7.4; 24° C.

The term Km denotes the concentration of substrate that gives half-maximal velocity. In general, kcat refers to the maximal rate divided by the concentration of active sites.

For `O=c1[nH]c(=O)c2[nH]c(=O)[nH]c2[nH]1` [uric acid], the Km turned out to be 2.2 µM in test [1]; 4 µM in test [2]; 4.9 µM in test [3] (24° C.); 4.9 µM in test [3] (37° C.); 5.3 µM in test [4]. In addition, the Vmax was 2.8 × 10^−3 μmol uric acid/min in test [1]; 4.3 × 10^−3 μmol uric acid/min in test [2]; 1.4 × 10^−3 μmol uric acid/min in test [3] (24° C.); 4.3 × 10^−3 μmol uric acid/min in test [3] (37° C.); 8.1 × 10^−4 μmol uric acid/min in test [4]; 2.4 × 10^−3 μmol uric acid/min in test [5]. Also, the kcat in test [1] is 4.78 s⁻¹; in test [2], 5.42 s⁻¹; in test [3] (24° C.), 1.25 s⁻¹; in test [3] (37° C.), 3.75 s⁻¹; in test [4] it was 0.417 s⁻¹.

The values above are taken from patent US8940861B2, “Variants of ancestral uricases and uses thereof” (Georgia Tech Research Corporation, priority 2010, dated 2015).
